Experimental data from patent US8609173B2, “Compositions comprising sweetness enhancers and methods of making them” (Senomyx Inc., priority 2008, dated 2013).

What was measured:
Format in all cases: in vivo, Human
Panelists [1] = assay: Paired comparison taste test, flavored water
Procedure: Two sweetened water solutions were prepared and compared: Flavored Water with 9% Sucrose vs. Flavored Water with 6% Sucrose+2.3 ppm (6.49 μM) of 5-(neopentyloxy)-1H-benzo[c][1,2,6]thiadiazin-4-amino-2,2-dioxide.
Mixing procedures: Dissolve acid into the water using a Lightnin® blender, mix for 5 minutes. Add sugar and continue to mix until dissolved. Add flavors last. Dissolve Compound A into a 0.50% propylene glycol mixture, add last and mix for another 5 minutes. Procedure:
(§1) Panelists evaluated two sweetened water solutions in a paired comparison taste test procedure and were instructed to select the sweeter of the two samples. They perform a total of three paired comparison tests each containing the following samples: Flavored Water with 9% Sucrose vs. Flavored Water with 6% Sucrose+2.3 ppm (6.49 μM) 5-(neopentyloxy)-1H-benzo[c][1,2,6]thiadiazin-4-amino-2,2-dioxide.
Two sweetened water solutions were prepared and compared: Flavored Water with 9% Sucrose vs. Flavored Water with 6% Sucrose+2.44 ppm (6.49 μM) of 3-(4-amino-2,2-dioxide-1H-benzo[c][1,2,6]thiadiazin-5-yloxy)-2′,2′-dimethyl-N-propylpropanamide.
as §1, with “Sucrose+2.44” for “Sucrose+2.3”, “3-(4-amino-2,2-dioxide-1H-benzo[c][1,2,6]thiadiazin-5-yloxy)-2′,2′-dimethyl-N-propylpropanamide.” for “5-(neopentyloxy)-1H-benzo[c][1,2,6]thiadiazin-4-amino-2,2-dioxide.”

External panelists [2] = assay: Line scale (15-point sucrose equivalence) sensory test, Example 3A/3C, sucrose or LSB, pH 7.1; set-up: key to Average Sweetness / Average Bitterness: 15-point scale: 0 = 0% sucrose to 15 = 15% sucrose; references = 5
Procedure: (§2) Several types of sensory tests were used to determine the efficacy of 5-(neopentyloxy)-1H-benzo[c][1,2,6]thiadiazin-4-amino-2,2-dioxide in enhancing sweetness of sucrose. Two types of tests were conducted: • 1) Sensory scaling tests were performed using a 15-point percent sucrose equivalence scale for sweetness in order to evaluate sweetness enhancement 5-(neopentyloxy)-1H-benzo[c][1,2,6]thiadiazin-4-amino-2,2-dioxide in sucrose, or in fructose. • 2) Paired comparison tests (2-alternative forced choice difference tests) were used to determine sweetness equivalence for solutions of sucrose vs. 5-(neopentyloxy)-1H-benzo[c][1,2,6]thiadiazin-4-amino-2,2-dioxide or buffer vs. 5-(neopentyloxy)-1H-benzo[c][1,2,6]thiadiazin-4-amino-2,2-dioxide. Stimuli:
Tests were performed with sucrose or fructose. Sweetener was evaluated with and/or without 5-(neopentyloxy)-1H-benzo[c][1,2,6]thiadiazin-4-amino-2,2-dioxide at the appropriate concentration(s).
5-(Neopentyloxy)-1H-benzo[c][1,2,6]thiadiazin-4-amino-2,2-dioxide was prepared as a concentrated stock solution in ethanol to ensure dissolution of the compound. Therefore, all taste solutions contained 0.1% ethanol final concentration. Samples without compound also contained 0.1% ethanol. Low sodium phosphate buffer consists of 0.3 mM KCl, 0.5 mM Na2HPO4, and 0.175 mM KH2PO4.
In scaling test situations, the samples were rated on a 15-point scale for sweetness, ranging from 0=0% sucrose to 15=15% sucrose. To evaluate attributes other than sweetness, references are used for training and are prepared according to the table below. Note that each reference was given a score of 5 on the 15-point scale.
External panelists were used for the tests. The exact number of panelists is reported with test results. Subjects were instructed not to eat or drink anything (except water) for at least 1 hour prior to the test.
Panelists rinsed their mouths with water prior to starting any test. Samples were presented to panelists in a randomized, counterbalanced order. Panelists rinsed with water and had up to a 1 minute delay to clear the mouth of any tastes after each evaluation. Two replicates of each test were performed, unless otherwise noted.

Panelists [3] = assay: Paired comparison taste test, Example 7, sucrose or fructose solutions; details: vs 6% Fructose + 25 μM compound, N = 25
Procedure: as §2, with “3-(4-amino-2,2-dioxide-1H-benzo[c][1,2,6]thiadiazin-5-yloxy)-2′,2′-dimethyl-N-propylpropanamide 3-(4-amino-2,2-dioxide-1H-benzo[c][1,2,6]thiadiazin-5-yloxy)-2′,2′-dimethyl-N-propylpropanamide” for “5-(neopentyloxy)-1H-benzo[c][1,2,6]thiadiazin-4-amino-2,2-dioxide”, “enhancing the” for “enhancing”, “sucrose” for “sucrose,”, “3-(4-amino-2,2-dioxide-1H-benzo[c][1,2,6]thiadiazin-5-yloxy)-2′,2′-dimethyl-N-propylpropanamide 3-(4-amino-2,2-dioxide-1H-benzo[c][1,2,6]thiadiazin-5-yloxy)-2′,2′-dimethyl-N-propylpropanamide.” for “5-(neopentyloxy)-1H-benzo[c][1,2,6]thiadiazin-4-amino-2,2-dioxide.”
Panelists evaluated two solutions in a paired comparison taste test procedure. They were instructed to select the sweeter of the two samples. They were also asked to comment on how difficult it was to tell the difference in sweetness between both samples and if any off tastes were perceived.
Panelists evaluated two solutions in a paired comparison taste test procedure and were instructed to select the sweeter of the two samples.

External panelists [4] = assay: Line scale sensory test, Example 6, fructose as sweetener, pH 7.1; set-up: Average Sweetness / Average Bitterness: scale not given here
Procedure: Sensory evaluations were performed using fructose as the sweetener and 3-(4-amino-2,2-dioxide-1H-benzo[c][1,2,6]thiadiazin-5-yloxy)-2′,2′-dimethyl-N-propylpropanamide as the sweetness enhancer, using methods similar to those using sucrose, above. […]

[5] = 6% Sucrose + 25 μM compound, pH 7.1, n = 32

## CC(C)(C)COc1cccc2c1C(N)=NS(=O)(=O)N2 [5-(neopentyloxy)-1H-benzo[c][1,2,6]thiadiazin-4-amino-2,2-dioxide]
Panelists [1]; Flavored Water with 6% Sucrose + 2.3 ppm (6.49 μM) compound chosen, vs 9% Sucrose, n = 45
  Sample selected as sweeter by panelists, Total: 23
Panelists [1]; Flavored Water with 6% Sucrose + 2.3 ppm (6.49 μM) compound vs 9% Sucrose, p>0.10
  Sweetness comparison (conclusion): not significantly different in sweetness
External panelists [2]; 35.3 μM (10 ppm) compound in LSB or 6% sucrose
  off tastes: no significant off tastes
External panelists [2]; [5]
  Average Bitterness: 0.3
  Average Sweetness: 8.7
External panelists [2]; 6% Sucrose + 35.3 μM (10 ppm) compound, n = 14
  Average Bitterness: 0.6
External panelists [2]; 6% Sucrose + 35.3 μM (10 ppm) compound, p>0.10
  Sweetness vs sucrose solutions (conclusion): not significantly different in sweetness from 8%, 9%, 10% sucrose
External panelists [2]; 6% Sucrose + 35.3 μM (10 ppm) compound, pH 7.1, n = 14
  Average Sweetness: 9.3
External panelists [2]; 6% sucrose + 25 μM compound
  Sweetness vs sucrose solutions (conclusion): not significantly different in sweetness properties compared to 9% and 10% sucrose solutions
  off tastes: No significant off tastes
External panelists [2]; LSB + 35.3 μM (10 ppm) compound, no sucrose, n = 14
  Average Bitterness: 0.3
External panelists [2]; LSB + 35.3 μM (10 ppm) compound, no sucrose, pH 7.1, n = 14
  Average Sweetness: 0.2
External panelists [2]; LSB + 35.3 μM (10 ppm) compound, p>0.10
  Sweetness vs sucrose solutions (conclusion): not significantly different in sweetness than 0% sucrose

## O=C(CO)[C@@H](O)[C@H](O)[C@H](O)CO [Fructose, fructose]
Panelists [3]; 6% Fructose chosen
  Sample selected as sweeter by panelists, Test 1: 5
Panelists [3]; 7% Fructose chosen
  Sample selected as more sweet by panelists, Test 1: 13
External panelists [4]; 2% Fructose, Table 29, n = 30
  Average Sweetness: 2.2
External panelists [4]; 2% Fructose, Table 30, n = 30
  Average Bitterness: 0.4
External panelists [4]; 4% Fructose, Table 29, n = 30
  Average Sweetness: 4.5
External panelists [4]; 4% Fructose, Table 30, n = 30
  Average Bitterness: 0.5
External panelists [4]; 6% Fructose, Table 29, n = 30
  Average Sweetness: 5.9
External panelists [4]; 6% Fructose, Table 30, n = 30
  Average Bitterness: 0.4
External panelists [4]; 6% Fructose, Table 31, n = 14
  Average Sweetness: 7.1
External panelists [4]; 6% Fructose, Table 32, n = 14
  Average Bitterness: 0.7
External panelists [4]; 6% Fructose, Table 33, n = 26
  Average Sweetness: 6.9
External panelists [4]; 6% Fructose, Table 34, n = 26
  Average Bitterness: 0.2
External panelists [4]; 8% Fructose, Table 31, n = 14
  Average Sweetness: 8.3
External panelists [4]; 8% Fructose, Table 32, n = 14
  Average Bitterness: 0.3
External panelists [4]; 8% Fructose, Table 33, n = 26
  Average Sweetness: 8.6
External panelists [4]; 8% Fructose, Table 34, n = 26
  Average Bitterness: 0.3
External panelists [4]; 9% Fructose, Table 31, n = 14
  Average Sweetness: 9.4
External panelists [4]; 9% Fructose, Table 32, n = 14
  Average Bitterness: 0.3
External panelists [4]; 9% Fructose, Table 33, n = 26
  Average Sweetness: 9.3
External panelists [4]; 9% Fructose, Table 34, n = 26
  Average Bitterness: 0.1
External panelists [4]; 10% Fructose, Table 31, n = 14
  Average Sweetness: 11.1
External panelists [4]; 10% Fructose, Table 32, n = 14
  Average Bitterness: 0.2
External panelists [4]; 10% Fructose, Table 33, n = 26
  Average Sweetness: 9.5
External panelists [4]; 10% Fructose, Table 34, n = 26
  Average Bitterness: 0.1
